GI50 and TGI data for nine compounds are collected here from PubChem BioAssay (NCI).

Experiment in all cases: inhibition of tumour cell growth, NCI panel, 48 h
In test [1] the test system is 786-0 renal.
Test [2] deals with A498 renal.
Test [3] deals with HCT-116 colon.
The test system of test [4] is IGROV1 ovarian.
Test [5] concerns MCF7 breast.
The test system of test [6] is MDA-MB-231 breast.
Test [7] has as its system NCI-H522 lung.
For test [8], the system named is RPMI-8226 leukemia.
Test [9] relates to SK-MEL-28 melanoma.
The subject of test [10] is SNB-19 CNS.

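1) Cells in 96-well plates. 2) Compound, 48 h, 5 concentrations. 3) Linear interpolation between surrounding doses. 4) Unreached endpoint = highest concentration. GI50 marks 50% less growth. TGI marks complete inhibition of growth.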

Take `CCN(CC)CCC(CNc1c(C)cnc2cc(Cl)ccc12)c1ccc(Cl)c(Cl)c1` (stereo not given): the GI50 in test [1] is 2.37 µM; in test [2] it was 9.4 µM; in test [3] it was 1.36 µM; in test [4], 2.26 µM; in [5], 1.79 µM; in test [6], 2.43 µM. The GI50 in [7] was 3.78 µM; in [8] it was 2.15 µM; in test [9], 1.97 µM; in test [10], 4.79 µM. The TGI in [1] turned out to be 5.74 µM; in test [2] it was 24.8 µM; in test [3], 8.86 µM; in [4], 12.1 µM; in [5] it was 4.15 µM; in test [6] it was 7.06 µM. The TGI worked out at 16 µM in test [7], 6.49 µM in test [8], 3.83 µM in test [9] and 18 µM in test [10].
As to `CCN1Cc2c(/C=C/c3ccccc3)nc3ccc(OC)cc3c2N(c2cccc(Cl)c2)C1`, the GI50 in [1] is 3.17 µM; in test [2] it was 1.5 µM; in [3], 1.67 µM; in test [4] it was 1.4 µM; in test [5], 1.65 µM; in test [6], 1.75 µM. Further, the GI50 in test [7] is 1.4 µM; in [8], 1.65 µM; in test [9] it was 1.78 µM; in [10] it was 2.13 µM. The TGI was 8.83 µM in [1]; 3.86 µM in test [2]; 3.8 µM in test [3]; 3.68 µM in test [4]; 3.75 µM in test [5]; 3.69 µM in [6]. Further, the TGI in test [7] was found to be 2.88 µM; in [8] it was 4.71 µM; in test [9], 3.28 µM; in test [10], 5.15 µM.
Turning to `Nc1nc(N)c2cc(S(=O)(=O)c3ccccc3)ccc2n1`, the GI50 in test [1] is 1.01 µM; in [2], 8.33 µM; in test [3] it was 0.501 µM; in [4] it was 4.59 µM; in test [5] it was 2.86 µM; in test [6], 8.07 µM. Moreover, the GI50 in test [7] was 4.56 µM; in [8], 6.04 µM; in test [9], 10.6 µM; in [10], 6.84 µM. Also, the TGI in [1], in test [2], in test [3], in [4], in test [5] and in test [6] was above 100 µM in each case. Moreover, the TGI in test [7], in test [8], in test [9] and in [10] was above 100 µM each time.
With `Cn1c(=S)c2[nH]c(SCc3cccnc3)nc2n(C)c1=O`, the TGI in [1], in test [2], in test [3], in test [4], in test [5] and in [6] was above 100 µM each time. Besides, the TGI in test [7], in test [8], in test [9] and in test [10] was above 100 µM each time.
For the compound `NC(=O)/C=C/c1c[nH]c2nccnc12`, the TGI is above 100 µM in [1]; 12.5 µM in test [2]; above 37.5 µM in test [3]; above 28.8 µM in [4]; above 100 µM in test [5]; 31.6 µM in [6]. In addition, the TGI in test [7] is 45.9 µM; in test [8] it was above 100 µM; in test [9], 4.26 µM; in test [10], above 16.7 µM.
Consider `COC(=O)C(Br)(C(=O)OC)C(Br)C(Br)C(Br)c1ccccc1` (stereo not given), for which the GI50 in [1] was 2.72 µM; in [2] it was 15.5 µM; in test [3] it was 1.61 µM; in [4] it was 1.06 µM; in test [5], 1.67 µM; in [6] it was 3.11 µM. Moreover, the GI50 in test [7] is 0.573 µM; in test [8], 2.97 µM; in test [9] it was 2.12 µM; in test [10], 14.9 µM. Moreover, the TGI in test [1] worked out at 6.7 µM; in [2] it was 29.4 µM; in test [3], 3.01 µM; in [4], 3.45 µM; in test [5], 5.07 µM; in test [6], 9.71 µM. In addition, the TGI was 1.53 µM in test [7], 9.34 µM in test [8], 4.99 µM in test [9] and 28.2 µM in test [10].
In the case of `O=C(Oc1c(Cl)c(Cl)c(Cl)c(Cl)c1Cl)C1CCCN1C(=O)OCc1ccccc1` (stereo not given), the GI50 in [1] is 3.94 µM; in [2] it was 1.99 µM; in [3] it was 3.43 µM; in test [4], 4 µM; in [5], 3.16 µM; in test [6], 2.42 µM. The GI50 in test [7] was 2.47 µM; in [8] it was 2.45 µM; in test [9], 7.45 µM; in [10] it was 3.23 µM. The TGI in test [1] is 14.2 µM; in test [2], 5.81 µM; in test [3], 10.7 µM; in [4], 22 µM; in test [5], 11.9 µM; in test [6] it was 6.6 µM. The TGI in test [7] was determined as 6.84 µM; in test [8], 6.83 µM; in test [9] it was 22.1 µM; in [10], 13.2 µM.
Turning to `Nc1ccccc1-n1c2c(c3ccccc3c1=O)C(=O)c1ccccc1-2`, the TGI in test [1] was 55.6 µM; in [2], above 100 µM; in test [3], above 100 µM; in test [4] it was above 100 µM; in test [5], above 100 µM; in test [6], above 100 µM. The TGI in test [7] is 25.6 µM; in [8] it was above 100 µM; in test [9], above 100 µM; in test [10], 23.8 µM.
On to `COc1ncc(-c2ccc3ncnc(Nc4cccc(Cl)c4)c3c2)cc1NS(C)(=O)=O`, for which the GI50 in test [1] is 2.72 µM; in test [2], 0.605 µM; in test [3], 2.33 µM; in [4], 0.189 µM; in [5] it was 0.404 µM; in test [6], 1.99 µM. Moreover, the GI50 in [7] is 2.14 µM; in test [8] it was 2.19 µM; in [9] it was 1.81 µM; in test [10], 3.19 µM. Moreover, the TGI in test [1] came to 24.9 µM; in test [2] it was 2.94 µM; in [3] it was 10.9 µM; in test [4] it was 0.815 µM; in test [5] it was 11.1 µM; in test [6], 19.6 µM. Also, the TGI was found to be 18.4 µM in test [7], 9.24 µM in test [8], 41.3 µM in test [9] and 31.3 µM in [10].
